Assay results published in ChEMBL document CHEMBL1201862, “PubChem BioAssay data set” (2004).
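Step 1: Grow cells in 96-well plates. Step 2: Expose to compound for 48 hours at 5 concentrations. Step 3: Interpolate endpoints linearly; if unreached, use highest concentration. GI50 is the concentration that inhibits growth by half.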 Active and inactive are the calls of the source. Cut-off read from the data, not from the text of the source: active = GI50 up to about 1.1 µM and inactive = higher.

What was measured:
Test in all cases: inhibition of tumour cell growth, NCI panel, 48 h
Hs-578T = test system: Hs-578T
T47D = test system: T47D
PC-3 = test system: PC-3
BT-549 = test system: BT-549
MDA-MB-435 = test system: MDA-MB-435
ACHN = test system: ACHN

Measured: GI50

COc1cc2c(cc1OC)C(=O)/C(=C/c1cc(OC)c(OC)c(OC)c1)C2
inactive: Hs-578T > 100 µM | T47D 90.2 µM | PC-3 > 100 µM | BT-549 36.9 µM | MDA-MB-435 > 100 µM

O=C1CN2C(Cl)(Cl)C2(c2ccccc2)c2cc(Cl)ccc2N1CC(F)(F)F (stereo not given)
inactive: ACHN 33.7 µM

CN1C2CC(=O)CC1[C@H](O)[C@@H]2O
inactive: T47D > 100 µM | PC-3 > 100 µM | BT-549 > 100 µM | MDA-MB-435 > 100 µM
